Here are results for 22 compounds from ChEMBL document CHEMBL5338816, “Discovery of Dimethyl Shikonin Oxime 5a, a Potent, Selective Bombesin Receptor Subtype-3 Agonist for the Treatment of Type 2 Diabetes Mellitus” (J Med Chem, 2023).

The source made the active and inactive calls. The rule behind the calls is not given here. Where only a bound is given, the exact number is not on record here.

Series [1] addresses T1, Bombesin receptor subtype-3 (Homo sapiens, UniProt P32247).
T1 sequence (P32247 whole entry): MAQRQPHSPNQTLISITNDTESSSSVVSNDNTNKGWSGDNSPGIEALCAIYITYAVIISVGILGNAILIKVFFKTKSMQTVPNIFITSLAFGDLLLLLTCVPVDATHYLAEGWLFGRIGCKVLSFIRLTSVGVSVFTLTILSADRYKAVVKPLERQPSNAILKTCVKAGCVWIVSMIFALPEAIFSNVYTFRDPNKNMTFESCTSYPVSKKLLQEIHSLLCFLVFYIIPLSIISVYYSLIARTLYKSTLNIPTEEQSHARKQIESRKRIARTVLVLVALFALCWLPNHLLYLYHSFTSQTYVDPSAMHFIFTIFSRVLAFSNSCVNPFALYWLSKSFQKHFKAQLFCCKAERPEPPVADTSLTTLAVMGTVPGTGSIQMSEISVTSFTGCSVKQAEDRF
The experiment in a line: Agonist activity at human BB3 stably overexpressed in human NCI-H1299 cells assessed as increase in IP-1 accumulation incubated for 60 mins by HTRF assay. Format: functional, cell-based.

A short description of series [2]: Agonist activity at human BB3 in human HEK293T cells assessed as increase in intracellular calcium response and measured for 3 mins by FLIPR calcium 6 assay. To be noted: HEK-293T, 0.05 h. Type of series: cell-based.
For series [3], the target named is T2, Neuromedin-B receptor (Homo sapiens, UniProt P28336). As to the kind of experiment: Agonist activity at human BB1 in human HEK293T cells assessed as increase in intracellular calcium response and measured for 3 mins by FLIPR calcium 6 assay. Format: functional, cell-based.
Target sequence in this assay (P28336 whole entry): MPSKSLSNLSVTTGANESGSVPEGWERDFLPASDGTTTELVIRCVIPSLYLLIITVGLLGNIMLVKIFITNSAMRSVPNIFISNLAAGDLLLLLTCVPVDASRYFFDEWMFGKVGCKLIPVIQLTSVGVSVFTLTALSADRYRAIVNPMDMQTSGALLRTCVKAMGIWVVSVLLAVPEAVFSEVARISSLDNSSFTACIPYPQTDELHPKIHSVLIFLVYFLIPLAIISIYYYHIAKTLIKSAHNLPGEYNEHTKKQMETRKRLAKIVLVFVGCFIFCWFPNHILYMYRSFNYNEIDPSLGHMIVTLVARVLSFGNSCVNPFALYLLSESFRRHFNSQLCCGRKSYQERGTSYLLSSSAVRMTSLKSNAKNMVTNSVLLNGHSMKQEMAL
Series [4] concerns the target T3, Bombesin receptor subtype-3 (Mus musculus, UniProt O54798).
T3 sequence (O54798 whole entry): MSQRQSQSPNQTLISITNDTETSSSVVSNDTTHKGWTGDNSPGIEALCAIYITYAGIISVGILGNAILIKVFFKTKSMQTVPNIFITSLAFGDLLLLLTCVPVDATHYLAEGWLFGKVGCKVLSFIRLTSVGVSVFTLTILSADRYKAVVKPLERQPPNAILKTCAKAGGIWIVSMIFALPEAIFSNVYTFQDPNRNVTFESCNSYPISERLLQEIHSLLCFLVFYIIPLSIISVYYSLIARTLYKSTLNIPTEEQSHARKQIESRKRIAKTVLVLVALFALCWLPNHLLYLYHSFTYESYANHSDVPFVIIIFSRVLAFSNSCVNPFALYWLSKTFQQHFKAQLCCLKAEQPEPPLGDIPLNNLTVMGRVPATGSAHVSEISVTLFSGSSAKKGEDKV
As to the kind of experiment: Agonist activity at mouse BB3 stably overexpressed in human HEK cells assessed as increase in intracellular calcium response and measured for 3 mins by FLIPR calcium 6 assay. Format: functional, cell-based.

In series [5] the target is T3, Bombesin receptor subtype-3. As to the kind of experiment: Agonist activity at mouse BB3 stably overexpressed in human HEK cells assessed as increase in IP-1 accumulation incubated for 60 mins by HTRF assay. Type of series: functional, cell-based.
For series [6] the target is unchanged. As to the kind of experiment: Agonist activity at endogenous mouse BB3 in mouse B16 cells assessed as increase in IP-1 accumulation incubated for 60 mins by HTRF assay. Format: functional, cell-based.
Series [7] concerns the target T1, Bombesin receptor subtype-3. The experiment in a line: Agonist activity at human BB3 stably overexpressed in human NCI-H1299 cells assessed as increase in intracellular calcium response and measured for 3 mins by FLIPR calcium 6 assay. Type of series: functional, cell-based.
For a further series, the system named is HEK293T. As to the kind of experiment: Agonist activity at human BB3 in human HEK293T cells assessed as increase in intracellular calcium response at 10 uM and measured for 3 mins by FLIPR calcium 6 assay. Type of series: cell-based.
In series [8] the test system is Mus musculus. The experiment in a line: Antidiabetic activity in fourteen hour fasted type 2 diabetic db/db mouse assessed as decrease in glycosylated serum protein at 10 mg/kg,po for 4 weeks. Type of series: functional, organism-based.
Series [9] in a line: Drug concentration in […] mouse cerebrospinal fluid at 50 mg/kg,po and measured upto 480 mins by LC-MS/MS analysis. Type of series: ADME, organism-based. To be noted: read-out: Ct.
Series [10] relates to Mus musculus. As to the kind of experiment: Antidiabetic activity in fourteen hour fasted type 2 diabetic db/db mouse assessed as decrease in ALT level at 10 mg/kg,po for 4 weeks by BS-360S analyzer. Format: functional, organism-based.
Series [11] relates to Mus musculus. As to the kind of experiment: Antidiabetic activity in five hrs fasted wild type C57BL/6 mouse assessed as reduction in blood glucose level at 3 to 30 mg/kg,po pretreated with compound for 30 mins and followed by […] and measured upto 120 mins by OGTT. Format: functional, organism-based. Conditions: dose upper 30.0 mg/kg, time 150.0 min.
The subject of series [12] is Mus musculus. The experiment in a line: Antidiabetic activity in fourteen hour fasted type 2 diabetic db/db mouse assessed as decrease in HOMA-IR level at 10 mg/kg,po for 4 weeks. Format: functional, organism-based.
Series [13] concerns the target T1, Bombesin receptor subtype-3. The experiment in a line: Agonist activity at human BB3 transiently expressed in human HEK293T cells assessed as increase in IP-1 accumulation incubated for 60 mins by HTRF assay.
The test system of series [14] is Mus musculus. As to the kind of experiment: Antidiabetic activity in five hrs fasted BB3 knockout C57BL/6 mouse assessed as reduction in blood glucose level at 30 mg/kg,po pretreated with compound for 30 mins and followed by […] and measured upto 120 mins by OGTT. Format: functional, organism-based. To be noted: time 150.0 min.
Series [15] concerns the target T4, Bombesin receptor subtype-3 (Rattus norvegicus, UniProt Q8K418).
T4 sequence (Q8K418 whole entry): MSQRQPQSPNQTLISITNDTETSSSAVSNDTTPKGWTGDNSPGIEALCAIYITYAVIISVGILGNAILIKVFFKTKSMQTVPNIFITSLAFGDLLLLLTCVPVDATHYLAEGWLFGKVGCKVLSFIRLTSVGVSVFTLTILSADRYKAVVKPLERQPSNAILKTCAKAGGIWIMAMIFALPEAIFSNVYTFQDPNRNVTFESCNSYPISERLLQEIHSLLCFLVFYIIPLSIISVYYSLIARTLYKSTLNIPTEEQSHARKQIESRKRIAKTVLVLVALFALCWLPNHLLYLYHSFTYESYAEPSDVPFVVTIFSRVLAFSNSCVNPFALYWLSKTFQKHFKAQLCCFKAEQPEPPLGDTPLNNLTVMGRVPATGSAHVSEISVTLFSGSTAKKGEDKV
As to the kind of experiment: Agonist activity at rat BB3 transiently expressed in human HEK293T cells assessed as increase in IP-1 accumulation incubated for 60 mins by HTRF assay. Type of series: functional, cell-based.

Series [16] can be described thus: Dissociation constant, pKa of the compound. Type of series: physicochemical.
In series [17] the test system is Mus musculus. The experiment in a line: Antidiabetic activity in fourteen hour fasted type 2 diabetic db/db mouse assessed as decrease in fasting blood glucose level at 10 mg/kg,po for 4 weeks by Glucose analyzer. Type of series: functional, organism-based.
Series [18] deals with Mus musculus. As to the kind of experiment: Antidiabetic activity in fourteen hour fasted type 2 diabetic db/db mouse assessed as increase in PPRE expression in white adipose tissue at 10 mg/kg, po for 4 weeks by Western blot analysis. Format: functional, organism-based.
For series [19], the system named is Mus musculus. As to the kind of experiment: Antidiabetic activity in fourteen hour fasted type 2 diabetic db/db mouse assessed as decrease in gamma-GT level at 10 mg/kg,po for 4 weeks by BS-360S analyzer. Type of series: functional, organism-based.
Series [20] deals with Mus musculus. The experiment in a line: Antidiabetic activity in fourteen hour fasted type 2 diabetic db/db mouse assessed as reduction of blood glucose excursion at 10 mg/kg,po for 2 weeks followed by […] and measured upto 120 mins by OGTT. Type of series: functional, organism-based.
Series [21] concerns the target T2, Neuromedin-B receptor. The experiment in a line: Agonist activity at human BB1 in human HEK293T cells assessed as increase in intracellular calcium response at 10 uM and measured for 3 mins by FLIPR calcium 6 assay. Format: functional, cell-based.
Target sequence in this assay (P28336 whole entry, looked up): as the sequence (P28336 whole entry) above

Take `C=CC(C)(C)C(OC(=O)c1ccccn1)c1cc(OC)c2c(c1OC)/C(=N/O)C=C/C2=N\O` (centres undefined): in [1], the EC50 was 14.7 nM.
Still for that read-out and setting: the same measure for `C=CC(C)(C)C(OC(=O)c1ccc(C=O)cc1)c1cc(OC)c2c(c1OC)/C(=N/O)C=C/C2=N\O` (centres undefined): 311 nM.
Regarding `CCCC[C@H](NC(=O)[C@H](Cc1ccccc1)NC(=O)[C@H](Cc1c[nH]cn1)NC(=O)CNC(=O)[C@@H](NC(=O)[C@H](C)NC(=O)[C@H](Cc1c[nH]c2ccccc12)NC(=O)[C@H](CCC(N)=O)NC(=O)[C@H](N)Cc1ccccc1)C(C)C)C(N)=O`, the concentration for a half-maximal effect (EC50) in series [2] was 0.405 nM; at Neuromedin-B receptor [3], 0.155 nM.
With `COc1cc(C(CC=C(C)C)OCCC(C)C)c(OC)c2c1/C(=N/OC(=O)c1ccccc1)C=C/C2=N\OC(=O)c1ccccc1` (centres undefined), the EC50 in [1] was above 10000 nM.
The same measure, in the same setting: the same measure for `COc1cc(C(CC=C(C)C)OC(=O)CC(C)C)c(OC)c2c1/C(=N/O)C=C/C2=N\O` (centres undefined): 822 nM; for `C=CC(C)(C)C(OCCCCO)c1cc(OC)c2c(c1OC)/C(=N/O)C=C/C2=N\O` (centres undefined): 226 nM.
On the same count and under the same terms, the value for `C=CC(C)(C)C(OC(=O)c1ccc(C)cc1)c1cc(OC)c2c(c1OC)/C(=N/O)C=C/C2=N\O` (centres undefined) was 81.7 nM.
For `O[C@@](Cc1nc(CC2(C(F)(F)F)CC2)c[nH]1)(c1ccc(-n2cccn2)cc1)C(F)(F)F`, the EC50 in [1] is 0.211 nM; in series [4] it was 2.99 nM; in series [5], 0.421 nM; in series [6] it was 13.5 nM; in [7], 0.293 nM.
Regarding `C=CC(C)(C)C(OC(C)=O)c1cc(OC)c2c(c1OC)/C(=N/O)C=C/C2=N\O` (centres undefined), the EC50 in series [1] is above 1000 nM.
For `C=CC(C)(C)C(OC(=O)C1CCCO1)c1cc(OC)c2c(c1OC)/C(=N/O)C=C/C2=N\O` (centres undefined), the concentration for a half-maximal effect (EC50) in [1] is 135 nM.
For the compound `C=CC(C)(C)C(OCCCCCO)c1cc(OC)c2c(c1OC)/C(=N/O)C=C/C2=N\O` (centres undefined), in [1], the EC50 is 776 nM.
On the same count and under the same terms, the value for `C=CC(C)(C)C(OC(=O)c1ccncc1)c1cc(OC)c2c(c1OC)/C(=N/O)C=C/C2=N\O` (centres undefined) was 277 nM.
As for `COc1cc(C(O)CC=C(C)C)c(OC)c2c1/C(=N/O)C=C/C2=N\O` (centres undefined), the EC50 in [1] is 3400 nM; in [4], 780 nM; in series [5], 624 nM; in [7], 2380 nM.
Turning to `C=CC(C)(C)C(OC(=O)c1cccnc1Br)c1cc(OC)c2c(c1OC)/C(=N/O)C=C/C2=N\O` (centres undefined), in series [1], the EC50 is 101 nM.
The same measure, in the same setting: the value for `C=CC(C)(C)C(OC(=O)c1cncc(F)c1)c1cc(OC)c2c(c1OC)/C(=N/O)C=C/C2=N\O` (centres undefined) was 60 nM; that for `COc1cc(C(CC=C(C)C)OCCC(C)C)c(OC)c2c1/C(=N/O)C=C/C2=N\O` (centres undefined) was 520 nM.
For the compound `C=CC(C)(C)C(OC(=O)c1ccco1)c1cc(OC)c2c(c1OC)/C(=N/O)C=C/C2=N\O` (centres undefined), the result in the series with HEK293T, in the series on Mus musculus [14] and at Neuromedin-B receptor [21] was inactive. Moreover, the result in the series with Mus musculus [8], with Mus musculus [10], in the series on Mus musculus [12], in the series on Mus musculus [17], in the series with Mus musculus [18] and in the series on Mus musculus [19] was Active. In addition, the result in the series on Mus musculus [20] was Active. The concentration for a half-maximal effect (EC50) was 3.78 nM in series [1]; 67 nM in series [4]; 149 nM in series [13]; 54.7 nM in series [5]; 0.44 nM in [6]; 6.11 nM in series [15]. Also, the EC50 in series [7] is 10.9 nM. Further, the concentration at 8 h in [9] was below 0.05 ng/mL. Also, the Activity result in the series with Mus musculus [11] is “Dose-Dependent Effect”. In addition, in series [16], the pKa was above 10.2.
In the case of `C=CC(C)(C)C(OC(=O)CC(C)C)c1cc(OC)c2c(c1OC)/C(=N/O)C=C/C2=N\O` (centres undefined), the EC50 in series [1] is 52.5 nM.
The same measure, in the same setting: the same measure for `C=CC(C)(C)C(O)c1cc(OC)c2c(c1OC)/C(=N/O)C=C/C2=N\O` (centres undefined): above 10000 nM; for `C=CC(C)(C)C(OC(=O)c1ccccc1)c1cc(OC)c2c(c1OC)/C(=N/O)C=C/C2=N\O` (centres undefined): 4.79 nM.
The same measure, in the same setting: the value for `C=CC(C)(C)C(OCCCO)c1cc(OC)c2c(c1OC)/C(=N/O)C=C/C2=N\O` (centres undefined) was above 10000 nM.
On the same count and under the same terms, the same measure for `C=CC(C)(C)C(OC(=O)c1cccnc1)c1cc(OC)c2c(c1OC)/C(=N/O)C=C/C2=N\O` (centres undefined): 15.7 nM.
